In PMC12090182, “Repurposing of the RIPK1-Selective Benzo[1,4]oxazepin-4-one Scaffold for the Development of a Type III LIMK1/2 Inhibitor” (ACS Chemical Biology, 2025):
Read-outs that look alike come from different tables or passages of the source.

Key:
Assay in all cases: biochemical
Type in all cases: binding
[1] = biological target: 468 kinases including some pathogenic mutants (Homo sapiens, UniProt O14578); details: CIT (Entrez CIT), 100 nM; read-out: Percent Control
[2] = biological target: 468 kinases including some pathogenic mutants (Homo sapiens, UniProt O43283); details: LZK (Entrez MAP3K13), 100 nM; read-out: Percent Control
[3] = biological target: 468 kinases including some pathogenic mutants (Homo sapiens, UniProt P00519, F317L); details: read-out: Percent Control
[4] = biological target: 468 kinases including some pathogenic mutants (Homo sapiens, UniProt P07949, V804L); details: read-out: Percent Control
[5] = biological target: 468 kinases including some pathogenic mutants (Homo sapiens, UniProt P10721); details: 100 nM, read-out: Percent Control
Sequence of 468 kinases including some pathogenic mutants (Homo sapiens, UniProt P10721) (P10721 26-976, change not shown): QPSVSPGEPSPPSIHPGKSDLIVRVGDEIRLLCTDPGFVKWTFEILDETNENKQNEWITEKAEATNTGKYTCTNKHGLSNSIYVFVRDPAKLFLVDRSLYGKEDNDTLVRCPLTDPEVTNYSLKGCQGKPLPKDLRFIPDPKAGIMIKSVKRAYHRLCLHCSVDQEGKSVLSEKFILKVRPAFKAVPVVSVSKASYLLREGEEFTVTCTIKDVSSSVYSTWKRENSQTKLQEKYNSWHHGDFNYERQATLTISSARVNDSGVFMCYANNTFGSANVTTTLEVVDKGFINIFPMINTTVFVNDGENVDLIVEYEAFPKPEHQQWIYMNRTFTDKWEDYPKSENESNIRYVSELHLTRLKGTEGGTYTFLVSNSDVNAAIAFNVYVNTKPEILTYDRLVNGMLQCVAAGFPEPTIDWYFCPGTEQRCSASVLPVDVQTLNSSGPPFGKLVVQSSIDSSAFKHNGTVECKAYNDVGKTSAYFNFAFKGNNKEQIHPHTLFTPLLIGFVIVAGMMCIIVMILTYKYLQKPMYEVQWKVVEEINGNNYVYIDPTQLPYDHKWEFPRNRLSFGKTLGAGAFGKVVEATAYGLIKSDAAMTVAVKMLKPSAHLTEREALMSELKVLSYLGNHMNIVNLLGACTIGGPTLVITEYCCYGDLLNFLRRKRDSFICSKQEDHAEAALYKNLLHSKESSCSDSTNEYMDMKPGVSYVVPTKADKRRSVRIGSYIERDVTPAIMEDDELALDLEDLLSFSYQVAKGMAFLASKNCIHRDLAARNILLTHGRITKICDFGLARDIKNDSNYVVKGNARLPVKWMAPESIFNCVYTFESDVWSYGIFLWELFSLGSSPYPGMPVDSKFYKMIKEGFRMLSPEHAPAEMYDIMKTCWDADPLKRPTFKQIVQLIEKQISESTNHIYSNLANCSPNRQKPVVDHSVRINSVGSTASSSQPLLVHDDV

[6] = biological target: 468 kinases including some pathogenic mutants (Homo sapiens, UniProt P24723); details: PRKCH (Entrez PRKCH), 1000 nM; read-out: Percent Control
[7] = biological target: 468 kinases including some pathogenic mutants (Homo sapiens, UniProt P35968); details: VEGFR2 (Entrez KDR), 100 nM; read-out: Percent Control
Sequence of 468 kinases including some pathogenic mutants (Homo sapiens, UniProt P35968) (P35968 20-1356, change not shown): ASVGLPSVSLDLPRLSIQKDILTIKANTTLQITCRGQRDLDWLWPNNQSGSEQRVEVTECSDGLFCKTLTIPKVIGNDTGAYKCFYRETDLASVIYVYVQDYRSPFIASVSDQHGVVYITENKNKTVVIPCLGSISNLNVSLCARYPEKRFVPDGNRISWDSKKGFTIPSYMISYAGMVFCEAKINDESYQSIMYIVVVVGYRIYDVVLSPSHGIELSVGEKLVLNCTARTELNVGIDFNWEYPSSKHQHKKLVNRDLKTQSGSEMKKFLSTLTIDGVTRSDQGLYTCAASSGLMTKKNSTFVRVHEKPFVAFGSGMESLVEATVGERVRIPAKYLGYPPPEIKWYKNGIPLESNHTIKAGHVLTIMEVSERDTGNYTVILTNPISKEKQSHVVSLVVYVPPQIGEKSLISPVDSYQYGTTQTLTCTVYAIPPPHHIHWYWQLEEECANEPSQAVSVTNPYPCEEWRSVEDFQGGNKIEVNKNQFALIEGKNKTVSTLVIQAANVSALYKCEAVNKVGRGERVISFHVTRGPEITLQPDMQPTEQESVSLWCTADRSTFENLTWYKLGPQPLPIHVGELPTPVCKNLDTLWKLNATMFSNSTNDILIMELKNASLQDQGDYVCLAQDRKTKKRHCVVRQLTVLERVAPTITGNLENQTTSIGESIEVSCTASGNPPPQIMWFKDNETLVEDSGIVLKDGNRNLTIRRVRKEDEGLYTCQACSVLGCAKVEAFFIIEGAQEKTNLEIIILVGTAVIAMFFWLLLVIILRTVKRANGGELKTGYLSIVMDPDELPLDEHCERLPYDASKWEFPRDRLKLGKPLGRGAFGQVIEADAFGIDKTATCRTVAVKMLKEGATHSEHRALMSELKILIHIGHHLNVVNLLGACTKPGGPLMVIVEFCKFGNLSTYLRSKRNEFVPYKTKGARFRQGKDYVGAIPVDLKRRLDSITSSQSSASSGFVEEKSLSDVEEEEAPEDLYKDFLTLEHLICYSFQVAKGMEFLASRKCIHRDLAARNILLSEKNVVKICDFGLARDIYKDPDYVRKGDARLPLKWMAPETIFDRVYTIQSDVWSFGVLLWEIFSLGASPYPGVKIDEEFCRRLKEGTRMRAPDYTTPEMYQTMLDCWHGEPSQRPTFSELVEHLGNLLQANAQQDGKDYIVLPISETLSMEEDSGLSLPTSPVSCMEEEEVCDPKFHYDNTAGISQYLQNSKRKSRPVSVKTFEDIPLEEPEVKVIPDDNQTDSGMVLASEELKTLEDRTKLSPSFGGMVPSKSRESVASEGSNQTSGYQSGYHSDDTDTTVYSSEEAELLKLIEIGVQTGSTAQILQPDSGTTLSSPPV

[8] = biological target: 468 kinases including some pathogenic mutants (Homo sapiens, UniProt P36897); details: TGFBR1 (Entrez TGFBR1), 1000 nM; read-out: Percent Control
[9] = biological target: 468 kinases including some pathogenic mutants (Homo sapiens, UniProt P41240); details: CSK (Entrez CSK), 100 nM; read-out: Percent Control
[10] = biological target: 468 kinases including some pathogenic mutants (Homo sapiens, UniProt P42338); details: PIK3CB (Entrez PIK3CB), 100 nM; read-out: Percent Control
Sequence of 468 kinases including some pathogenic mutants (Homo sapiens, UniProt P42338) (P42338 whole entry, change not shown): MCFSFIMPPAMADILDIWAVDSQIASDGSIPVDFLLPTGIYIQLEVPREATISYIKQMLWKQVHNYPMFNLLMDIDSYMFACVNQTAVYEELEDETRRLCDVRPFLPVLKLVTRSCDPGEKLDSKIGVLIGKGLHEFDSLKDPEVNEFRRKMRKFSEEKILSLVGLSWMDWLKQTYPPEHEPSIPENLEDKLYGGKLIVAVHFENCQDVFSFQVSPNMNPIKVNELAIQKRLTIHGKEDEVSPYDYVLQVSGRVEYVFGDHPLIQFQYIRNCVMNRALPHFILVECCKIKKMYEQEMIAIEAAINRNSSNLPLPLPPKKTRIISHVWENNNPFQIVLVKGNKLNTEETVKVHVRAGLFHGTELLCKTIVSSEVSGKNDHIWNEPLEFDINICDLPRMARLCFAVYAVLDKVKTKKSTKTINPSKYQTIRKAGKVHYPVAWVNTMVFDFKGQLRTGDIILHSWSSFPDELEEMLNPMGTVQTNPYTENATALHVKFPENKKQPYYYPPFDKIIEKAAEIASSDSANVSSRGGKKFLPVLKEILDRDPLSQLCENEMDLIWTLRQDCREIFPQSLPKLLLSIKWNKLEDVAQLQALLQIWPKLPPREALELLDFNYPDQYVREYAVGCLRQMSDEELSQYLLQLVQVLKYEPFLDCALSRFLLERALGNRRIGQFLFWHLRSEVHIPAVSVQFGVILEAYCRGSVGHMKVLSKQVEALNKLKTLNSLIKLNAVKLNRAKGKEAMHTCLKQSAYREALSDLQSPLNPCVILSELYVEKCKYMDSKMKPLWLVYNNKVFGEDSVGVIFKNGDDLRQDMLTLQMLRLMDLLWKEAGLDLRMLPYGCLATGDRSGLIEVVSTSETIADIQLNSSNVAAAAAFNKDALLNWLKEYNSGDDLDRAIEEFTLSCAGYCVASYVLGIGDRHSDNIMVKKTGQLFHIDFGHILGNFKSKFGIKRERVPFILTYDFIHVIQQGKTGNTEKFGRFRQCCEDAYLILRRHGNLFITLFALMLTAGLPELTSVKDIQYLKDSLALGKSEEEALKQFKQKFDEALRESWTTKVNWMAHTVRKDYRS

[11] = biological target: 468 kinases including some pathogenic mutants (Homo sapiens, UniProt P49840); details: GSK3A (Entrez GSK3A), 100 nM; read-out: Percent Control
Sequence of 468 kinases including some pathogenic mutants (Homo sapiens, UniProt P49840) (P49840 whole entry, change not shown): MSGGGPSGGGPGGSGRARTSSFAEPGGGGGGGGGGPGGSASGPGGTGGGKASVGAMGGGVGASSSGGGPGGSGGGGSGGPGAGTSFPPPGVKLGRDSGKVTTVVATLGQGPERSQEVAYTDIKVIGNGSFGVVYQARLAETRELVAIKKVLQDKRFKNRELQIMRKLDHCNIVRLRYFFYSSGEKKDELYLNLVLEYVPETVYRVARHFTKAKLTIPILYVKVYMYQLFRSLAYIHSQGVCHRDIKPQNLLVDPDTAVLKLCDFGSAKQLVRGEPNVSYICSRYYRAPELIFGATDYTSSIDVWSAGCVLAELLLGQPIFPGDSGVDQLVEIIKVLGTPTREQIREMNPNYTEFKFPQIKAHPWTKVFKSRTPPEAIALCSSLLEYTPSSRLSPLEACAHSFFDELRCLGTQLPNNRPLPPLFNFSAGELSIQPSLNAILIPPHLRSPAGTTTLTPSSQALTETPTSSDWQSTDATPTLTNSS

[12] = biological target: 468 kinases including some pathogenic mutants (Homo sapiens, UniProt P51957); details: NEK4 (Entrez NEK4), 1000 nM; read-out: Percent Control
[13] = biological target: 468 kinases including some pathogenic mutants (Homo sapiens, UniProt Q00537); details: PCTK2 (Entrez CDK17), 100 nM; read-out: Percent Control
Sequence of 468 kinases including some pathogenic mutants (Homo sapiens, UniProt Q00537) (Q00537 whole entry, change not shown): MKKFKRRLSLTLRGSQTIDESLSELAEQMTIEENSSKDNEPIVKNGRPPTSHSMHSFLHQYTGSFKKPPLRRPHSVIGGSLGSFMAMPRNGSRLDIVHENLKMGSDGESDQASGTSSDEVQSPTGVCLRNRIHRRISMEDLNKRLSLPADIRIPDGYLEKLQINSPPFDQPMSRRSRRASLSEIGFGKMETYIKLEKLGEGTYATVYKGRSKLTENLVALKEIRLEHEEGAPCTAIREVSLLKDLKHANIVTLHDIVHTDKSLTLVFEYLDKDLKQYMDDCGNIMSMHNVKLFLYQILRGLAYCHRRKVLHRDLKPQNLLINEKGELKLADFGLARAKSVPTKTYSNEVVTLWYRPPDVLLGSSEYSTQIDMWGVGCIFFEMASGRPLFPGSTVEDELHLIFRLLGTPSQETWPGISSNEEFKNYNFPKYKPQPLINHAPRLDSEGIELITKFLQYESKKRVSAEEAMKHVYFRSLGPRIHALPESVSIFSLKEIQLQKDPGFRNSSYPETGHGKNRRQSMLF

[14] = biological target: 468 kinases including some pathogenic mutants (Homo sapiens, UniProt Q02763); details: TIE2 (Entrez TEK), 1000 nM; read-out: Percent Control
[15] = biological target: 468 kinases including some pathogenic mutants (Homo sapiens, UniProt Q04912); details: MST1R (Entrez MST1R), 100 nM; read-out: Percent Control
[16] = biological target: 468 kinases including some pathogenic mutants (Homo sapiens, UniProt Q13705); details: ACVR2B (Entrez ACVR2B), 100 nM; read-out: Percent Control
[17] = biological target: 468 kinases including some pathogenic mutants (Homo sapiens, UniProt Q14289); details: PYK2 (Entrez PTK2B), 100 nM; read-out: Percent Control
[18] = biological target: 468 kinases including some pathogenic mutants (Homo sapiens, UniProt Q16288); details: TRKC (Entrez NTRK3), 100 nM; read-out: Percent Control
[19] = biological target: 468 kinases including some pathogenic mutants (Homo sapiens, UniProt Q5S007, G2019S); details: read-out: Percent Control
[20] = biological target: 468 kinases including some pathogenic mutants (Homo sapiens, UniProt Q86V86); details: PIM3 (Entrez PIM3), 100 nM; read-out: Percent Control
[21] = biological target: 468 kinases including some pathogenic mutants (Homo sapiens, UniProt Q86Y07); details: VRK2 (Entrez VRK2), 1000 nM; read-out: Percent Control
[22] = biological target: 468 kinases including some pathogenic mutants (Homo sapiens, UniProt Q8IYT8); details: ULK2 (Entrez ULK2), 1000 nM; read-out: Percent Control
[23] = biological target: 468 kinases including some pathogenic mutants (Homo sapiens, UniProt Q9BRS2); details: RIOK1 (Entrez RIOK1), 100 nM; read-out: Percent Control
[24] = biological target: 468 kinases including some pathogenic mutants (Homo sapiens, UniProt Q9H4B4); details: PLK3 (Entrez PLK3), 1000 nM; read-out: Percent Control
Sequence of 468 kinases including some pathogenic mutants (Homo sapiens, UniProt Q9H4B4) (Q9H4B4 whole entry, change not shown): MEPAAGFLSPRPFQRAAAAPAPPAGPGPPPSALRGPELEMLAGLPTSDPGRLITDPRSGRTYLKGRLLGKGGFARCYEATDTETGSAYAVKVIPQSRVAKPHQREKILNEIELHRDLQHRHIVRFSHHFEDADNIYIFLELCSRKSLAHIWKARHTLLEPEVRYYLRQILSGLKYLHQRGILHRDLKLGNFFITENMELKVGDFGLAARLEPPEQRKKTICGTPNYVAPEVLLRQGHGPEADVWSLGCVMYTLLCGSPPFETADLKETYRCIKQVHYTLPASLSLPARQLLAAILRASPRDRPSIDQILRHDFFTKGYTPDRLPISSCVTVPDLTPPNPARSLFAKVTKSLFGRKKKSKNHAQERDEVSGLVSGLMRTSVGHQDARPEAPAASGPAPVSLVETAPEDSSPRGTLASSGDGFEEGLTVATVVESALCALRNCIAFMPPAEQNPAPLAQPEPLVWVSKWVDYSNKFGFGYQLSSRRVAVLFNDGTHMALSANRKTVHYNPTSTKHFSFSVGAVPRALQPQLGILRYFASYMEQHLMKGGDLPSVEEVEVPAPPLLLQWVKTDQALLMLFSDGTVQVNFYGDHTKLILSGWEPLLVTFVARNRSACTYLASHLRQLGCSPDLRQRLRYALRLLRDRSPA

[25] = biological target: 468 kinases including some pathogenic mutants (Homo sapiens, UniProt Q9NRP7); details: STK36 (Entrez STK36), 100 nM; read-out: Percent Control
[26] = biological target: 468 kinases including some pathogenic mutants (Homo sapiens, UniProt Q9NSY1); details: BIKE (Entrez BMP2K), 100 nM; read-out: Percent Control
[27] = biological target: 468 kinases including some pathogenic mutants (Homo sapiens, UniProt Q9NYY3); details: PLK2 (Entrez PLK2), 1000 nM; read-out: Percent Control
[28] = biological target: 468 kinases including some pathogenic mutants (Homo sapiens, UniProt Q9P1W9); details: PIM2 (Entrez PIM2), 100 nM; read-out: Percent Control
[29] = biological target: 468 kinases including some pathogenic mutants (Homo sapiens, UniProt Q9Y2I7); details: PIKFYVE (Entrez PIKFYVE), 1000 nM; read-out: Percent Control

CN1C(=O)[C@@H](N2CCc3c(nn(Cc4ccccc4)c3C(N)=O)C2=O)COc2cc(Cl)ccc21 [Compound 10, (S)-2-benzyl-6-(8-chloro-5-methyl-4-oxo-2,3,4,5-tetrahydrobenzo[b][1,4]oxazepin-3-yl)-7-oxo-4,5,6,7-tetrahydro-2H-pyrazolo[3,4-c]pyridine-3-carboxamide] gave a remaining activity at 0.1 µM [1] of 95%, a remaining activity at 0.1 µM [2] of 100% and a remaining activity at 0.1 µM [3] of 88%. For the same compound, the remaining activity at 1 µM [4] was 100%, the remaining activity at 0.1 µM ([5]; KIT (Entrez KIT)) was 69% and the remaining activity at 0.1 µM ([5]; KIT-autoinhibited (Entrez KIT)) was 100%. For the same compound, the remaining activity at 1 µM [6] was 100%, the remaining activity at 0.1 µM [7] was 81% and the remaining activity at 1 µM [8] was 100%. For the same compound, the remaining activity at 0.1 µM [9] was 83%, the remaining activity at 0.1 µM [10] was 100% and the remaining activity at 0.1 µM [11] was 100%. The remaining activity at 1 µM [12] was 100%, the remaining activity at 0.1 µM [13] was 83% and the remaining activity at 1 µM [14] was 100%. For the same compound, the remaining activity at 0.1 µM [15] was 82%, the remaining activity at 0.1 µM [16] was 92% and the remaining activity at 0.1 µM [17] was 88%. For the same compound, the remaining activity at 0.1 µM [18] was 79%, the remaining activity at 0.1 µM [19] was 85% and the remaining activity at 0.1 µM [20] was 87%. It also gave a remaining activity at 1 µM [21] of 100%, a remaining activity at 1 µM [22] of 100% and a remaining activity at 0.1 µM [23] of 63%. For the same compound, the remaining activity at 1 µM [24] was 100%, the remaining activity at 0.1 µM [25] was 100% and the remaining activity at 0.1 µM [26] was 67%. It also gave a remaining activity at 1 µM [27] of 100%, a remaining activity at 0.1 µM [28] of 83% and a remaining activity at 1 µM [29] of 100%.
